{"source": "patent US5187082A", "about": "“Process for producing A83850 antibiotics” (Eli Lilly and Company, priority 1990, dated 1993)", "key": {"[1]": {"tested_on": "Staphylococcus aureus", "test": "In vivo activity against experimentally-induced infection in mice", "details": "doses administered subcutaneously to mice 1 and 4 hours postinfection", "procedure": "(§1) The A83850 antibiotics have also shown in vivo antimicrobial activity against experimentally-induced infections in laboratory animals. When two doses of test compound were administered to mice experimentally infected with the test organism, the activity observed was measured as an ED50 value [effective dose in mg/kg to protect 50% of the test animals: see Warren Wick, et al., J. Bacteriol. 81, 233-235 (1961)].\n(§2) ^a mg/kg × 2; doses administered subcutaneously to mice 1 and 4"}, "[2]": {"tested_on": "Streptococcus pneumoniae", "test": "In vivo activity against experimentally-induced infection in mice", "details": "doses administered subcutaneously to mice 1 and 4 hours postinfection", "procedure": "as §1, §2"}, "[3]": {"tested_on": "Streptococcus pyogenes", "test": "In vivo activity against experimentally-induced infection in mice", "details": "doses administered subcutaneously to mice 1 and 4 hours postinfection", "procedure": "as §1, §2"}, "[4]": {"tested_on": "Streptococcus pneumoniae Park 1", "test": "microbe, parasite or virus in culture", "type": "cell-based", "procedure": "(§3) The MIC's in Table VII were determined by standard agar-dilution assays."}, "[5]": {"tested_on": "Staphylococcus aureus X400", "type": "cell-based", "procedure": "as §3"}, "[6]": {"tested_on": "Streptococcus pyogenes C203", "type": "cell-based", "procedure": "as §3"}, "[7]": {"tested_on": "Staphylococcus aureus V41", "type": "cell-based", "procedure": "as §3"}, "[8]": {"tested_on": "Staphylococcus epidermidis 222", "type": "cell-based", "procedure": "as §3"}, "[9]": {"tested_on": "Enterococcus faecalis 2041", "type": "cell-based", "procedure": "as §3"}, "[10]": {"tested_on": "Staphylococcus epidermidis 270", "type": "cell-based", "procedure": "as §3"}, "[11]": {"tested_on": "Enterococcus faecium X66", "type": "cell-based", "procedure": "as §3"}, "[12]": {"tested_on": "Staphylococcus aureus X1.1", "type": "cell-based", "procedure": "as §3"}, "[13]": {"tested_on": "Bacteriodes thetaiotaomicron", "test": "Activity against anaerobic bacteria, agar-dilution MIC", "details": "24 h"}, "[14]": {"tested_on": "Bacteroides corrodens", "test": "Activity against anaerobic bacteria, agar-dilution MIC", "type": "cell-based", "details": "Eikenella corrodens, 24 h"}, "[15]": {"tested_on": "Clostridium perfringens", "test": "microbe, parasite or virus in culture", "details": "24 h"}, "[16]": {"tested_on": "Bacteriodes fragilis", "test": "Activity against anaerobic bacteria, agar-dilution MIC", "type": "cell-based", "details": "24 h"}, "[17]": {"tested_on": "Fusobacterium necrophorum", "test": "microbe, parasite or virus in culture", "details": "24 h"}, "[18]": {"tested_on": "Culture A83850 (Amycolatopsis albus NRRL 18532)", "test": "Resistance of culture A83850 to antibiotics, sensitivity discs on seeded ISP No. 2 agar plates", "type": "cell-based", "details": "disc content printed per antibiotic", "procedure": "Resistance to antibiotics was measured by padding antibiotic sensitivity discs onto the surface of seeded ISP No. 2 agar plates."}, "[19]": {"tested_on": "Bacteriodes vulgatis", "test": "Activity against anaerobic bacteria, agar-dilution MIC", "details": "24 h"}, "[20]": {"tested_on": "Peptostreptococcus anaerobius", "test": "Activity against anaerobic bacteria, agar-dilution MIC", "type": "cell-based", "details": "24 h"}, "[21]": {"tested_on": "Fusobacterium symbiosum", "test": "microbe, parasite or virus in culture", "details": "24 h"}, "[22]": {"tested_on": "Peptostreptococcus intermedius", "test": "Activity against anaerobic bacteria, agar-dilution MIC", "type": "cell-based", "details": "Peptostreptococcus, 24 h"}, "[23]": {"tested_on": "Clostridium difficile", "test": "Activity against anaerobic bacteria, agar-dilution MIC", "details": "Clostridioides difficile, 24 h"}, "[24]": {"tested_on": "Bacteriodes melaninogenicus", "test": "Activity against anaerobic bacteria, agar-dilution MIC", "type": "cell-based", "details": "24 h"}, "[25]": {"tested_on": "Clostridium septicum", "test": "microbe, parasite or virus in culture", "details": "24 h"}, "[26]": {"tested_on": "Eubacterium aerofaciens", "test": "microbe, parasite or virus in culture", "details": "Collinsella aerofaciens, 24 h"}, "[27]": {"tested_on": "Peptococcus prevoti", "test": "Activity against anaerobic bacteria, agar-dilution MIC", "details": "24 h"}, "[28]": {"tested_on": "Propionibacterium acnes", "test": "Activity against anaerobic bacteria, agar-dilution MIC", "type": "cell-based", "details": "Cutibacterium acnes, 24 h"}, "[29]": {"tested_on": "Peptococcus asaccharolyticus", "test": "Activity against anaerobic bacteria, agar-dilution MIC", "details": "Peptoniphilus asaccharolyticus, 24 h"}, "[30]": {"details": "Streptococcus pneumoniae Park 1, agar dilution"}, "[31]": {"details": "Staphylococcus aureus X400, agar dilution"}, "[32]": {"details": "Streptococcus pyogenes C203, agar dilution"}, "[33]": {"details": "Staphylococcus aureus V41, agar dilution"}, "[34]": {"details": "Staphylococcus epidermidis 222, agar dilution"}, "[35]": {"details": "Enterococcus faecalis 2041, agar dilution"}, "[36]": {"details": "Staphylococcus epidermidis 270, agar dilution"}, "[37]": {"details": "Enterococcus faecium X66, agar dilution"}, "[38]": {"details": "Staphylococcus aureus X1.1, agar dilution"}}, "note": "Read-outs that look alike come from different tables or passages of the source.", "data": [{"smiles": "CC(C)C[C@H](C(=O)N[C@H]1C(=O)N[C@@H](CC(N)=O)C(=O)N[C@H]2C(=O)N[C@H]3C(=O)N[C@H](C(=O)N[C@H](C(=O)O)c4cc(O)cc(O)c4-c4cc3ccc4O)[C@H](O)c3ccc(c(Cl)c3)Oc3cc2cc(c3O[C@@H]2O[C@H](CO)[C@@H](O)[C@H](O)[C@H]2O[C@H]2C[C@](C)(N)[C@@H](O)[C@H](C)O2)Oc2ccc(cc2Cl)[C@H]1O)N(C)C", "note": "[Reduced A83850A]", "values": [{"measurement": "ED50 Value", "setting": "[1]", "result": 7.10, "unit": "mg/kg × 2"}, {"measurement": "ED50 Value", "setting": "[2]", "result": 3.88, "unit": "mg/kg × 2"}, {"measurement": "ED50 Value", "setting": "[3]", "result": 2.30, "unit": "mg/kg × 2"}, {"measurement": "MIC", "setting": "[4]; [30]", "result": 0.25, "unit": "µg/mL"}, {"measurement": "MIC", "setting": "[5]; [31]", "result": 2.0, "unit": "µg/mL"}, {"measurement": "MIC", "setting": "[6]; [32]", "result": 2.0, "unit": "µg/mL"}, {"measurement": "MIC", "setting": "[7]; [33]", "result": 2.0, "unit": "µg/mL"}, {"measurement": "MIC", "setting": "[8]; [34]", "result": 4.0, "unit": "µg/mL"}, {"measurement": "MIC", "setting": "[9]; [35]", "result": 8.0, "unit": "µg/mL"}, {"measurement": "MIC", "setting": "[10]; [36]", "result": 4.0, "unit": "µg/mL"}, {"measurement": "MIC", "setting": "[11]; [37]", "result": 2.0, "unit": "µg/mL"}, {"measurement": "MIC", "setting": "[12]; [38]", "result": 2.0, "unit": "µg/mL"}]}, {"smiles": "CN[C@H](CC(C)C)C(=O)N[C@H]1C(=O)N[C@@H](CC(N)=O)C(=O)N[C@H]2C(=O)N[C@H]3C(=O)N[C@H](C(=O)N[C@H](C(=O)O)c4cc(O)cc(O)c4-c4cc3ccc4O)[C@H](O)c3ccc(c(Cl)c3)Oc3cc2cc(c3O[C@@H]2O[C@H](CO)[C@@H](O)[C@H](O)[C@H]2O[C@H]2C[C@](C)(N)[C@@H](O)[C@H](C)O2)Oc2ccc(cc2Cl)[C@H]1O", "note": "[Reduced A83850B]", "values": [{"measurement": "ED50 Value", "setting": "[1]", "result": 2.12, "unit": "mg/kg × 2"}, {"measurement": "ED50 Value", "setting": "[2]", "result": 1.99, "unit": "mg/kg × 2"}, {"measurement": "ED50 Value", "setting": "[3]", "result": 1.36, "unit": "mg/kg × 2"}, {"measurement": "MIC", "setting": "[4]; [30]", "result": 0.125, "unit": "µg/mL"}, {"measurement": "MIC", "setting": "[5]; [31]", "result": 1.0, "unit": "µg/mL"}, {"measurement": "MIC", "setting": "[6]; [32]", "result": 0.5, "unit": "µg/mL"}, {"measurement": "MIC", "setting": "[7]; [33]", "result": 1.0, "unit": "µg/mL"}, {"measurement": "MIC", "setting": "[8]; [34]", "result": 2.0, "unit": "µg/mL"}, {"measurement": "MIC", "setting": "[9]; [35]", "result": 4.0, "unit": "µg/mL"}, {"measurement": "MIC", "setting": "[10]; [36]", "result": 2.0, "unit": "µg/mL"}, {"measurement": "MIC", "setting": "[11]; [37]", "result": 1.0, "unit": "µg/mL"}, {"measurement": "MIC", "setting": "[12]; [38]", "result": 1.0, "unit": "µg/mL"}]}, {"smiles": "CN[C@H](CC(C)C)C(=O)N[C@H]1C(=O)N[C@@H](CC(N)=O)C(=O)N[C@H]2C(=O)N[C@H]3C(=O)N[C@H](C(=O)N[C@H](C(=O)O)c4cc(O)cc(O)c4-c4cc3ccc4O)[C@H](O)c3ccc(c(Cl)c3)Oc3cc2cc(c3O[C@@H]2O[C@H](CO)[C@@H](O)[C@H](O)[C@H]2O[C@H]2C[C@](C)(N)[C@H](O)[C@H](C)O2)Oc2ccc(cc2Cl)[C@H]1O", "note": "[Vancomycin, vancomycin, reference compound]", "values": [{"measurement": "MIC", "setting": "[13]", "result": 64, "unit": "µg/mL"}, {"measurement": "MIC", "setting": "[14]", "result": 32, "unit": "µg/mL"}, {"measurement": "MIC", "setting": "[15]", "result": 2, "unit": "µg/mL"}, {"measurement": "MIC", "setting": "[16]", "result": "16 to 32", "unit": "µg/mL"}, {"measurement": "MIC", "setting": "[17]", "result": 1, "unit": "µg/mL"}, {"measurement": "Resistance or inhibition of culture A83850 by antibiotic disc", "setting": "[18]", "result": "inhibited"}, {"measurement": "MIC", "setting": "[19]", "result": 16, "unit": "µg/mL"}, {"measurement": "MIC", "setting": "[20]", "result": 1, "unit": "µg/mL"}, {"measurement": "MIC", "setting": "[21]", "result": 2, "unit": "µg/mL"}, {"measurement": "ED50 Value", "setting": "[1]", "result": 1.43, "unit": "mg/kg × 2"}, {"measurement": "ED50 Value", "setting": "[2]", "result": 0.67, "unit": "mg/kg × 2"}, {"measurement": "ED50 Value", "setting": "[3]", "result": 0.98, "unit": "mg/kg × 2"}, {"measurement": "MIC", "setting": "[22]", "result": 2, "unit": "µg/mL"}, {"measurement": "MIC", "setting": "[4]; Streptococcus pneumoniae, PARK1", "result": 0.5, "unit": "µg/mL"}, {"measurement": "MIC", "setting": "[23]", "result": 2, "unit": "µg/mL"}, {"measurement": "MIC", "setting": "[24]", "result": 128, "unit": "µg/mL"}, {"measurement": "MIC", "setting": "[25]", "result": 2, "unit": "µg/mL"}, {"measurement": "MIC", "setting": "[26]", "result": 8, "unit": "µg/mL"}, {"measurement": "MIC", "setting": "[27]", "result": 4, "unit": "µg/mL"}, {"measurement": "MIC", "setting": "[28]", "result": 4, "unit": "µg/mL"}, {"measurement": "MIC", "setting": "[29]", "result": 4, "unit": "µg/mL"}, {"measurement": "MIC", "setting": "[5]; Staphylococcus aureus, X400", "result": 1, "unit": "µg/mL"}, {"measurement": "MIC", "setting": "[6]; Streptococcus pyogenes, C203", "result": 0.5, "unit": "µg/mL"}, {"measurement": "MIC", "setting": "[7]; Staphylococcus aureus, V41", "result": 0.5, "unit": "µg/mL"}, {"measurement": "MIC", "setting": "[8]; Staphylococcus epidermidis, 222", "result": 1, "unit": "µg/mL"}, {"measurement": "MIC", "setting": "[9]; Enterococcus faecalis, 2041", "result": 4, "unit": "µg/mL"}, {"measurement": "MIC", "setting": "[10]; Staphylococcus epidermidis, 270", "result": 1, "unit": "µg/mL"}, {"measurement": "MIC", "setting": "[11]; Enterococcus faecium, X66", "result": 1, "unit": "µg/mL"}, {"measurement": "MIC", "setting": "[12]; Staphylococcus aureus, X1.1", "result": 0.5, "unit": "µg/mL"}]}]}
